Data reported in the METLIN SMRT retention time set (Domingo-Almenara et al. 2019).

Assay: gradient 5% acetonitrile 3 min, to 50% in 2 min, to 85% in 15 min, held 3 min, 100 µL/min
Conditions: column: Zorbax Extend-C18 2.1 x 50 mm; eluents: water / acetonitrile, 0.1% formic acid
In short: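 Pure standards were analyzed in mixtures of ~100 molecules using HPLC coupled to a quadrupole time-of-flight mass spectrometer, in both positive and negative ionization mode. Separation used a Zorbax Extend-C18 column (2.1 × 50 mm, 1.8 μm) at 100 μL/min, with water and acetonitrile each containing 0.1% formic acid. Dead and dwell volumes were 40 μL and 900 μL, and data were collected over 3 months. Retention time was read from computationally picked adduct peaks, each inspected manually.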

Going from `O=C(Cn1ccnc1-c1ccnc(N2CCOCC2)c1)Nc1cccc(Br)c1` to `O=C(Nc1cnc(N2CCOCC2)nc1)c1ccc(Br)cc1`, the RP-LC retention time rises from 648 s to 810 s.

First: CCc1nc(-c2csc(S(=O)(=O)N3CCCC(C(=O)Nc4ccc(Cl)cc4)C3)c2)no1 (centres undefined)
Second: COc1cccc(NC(=O)C2CCN(S(=O)(=O)c3cc(C(=O)N(C)C)cs3)CC2)c1
The RP-LC retention time of the first is higher: 1100 s for the first, 760 s for the second.

First: O=C1NCCOCCN(C(=O)c2nccc3ccccc23)[C@H]2CCC[C@@H]12
Second: Cc1nc2ccn(Cc3cccs3)c(=O)c2cc1C(=O)N1CCOCC1
The RP-LC retention time of the first is higher: 674 s for the first, 648 s for the second.

First: Cc1ccc(-c2ncc(C(=O)NC(C)c3ccccn3)c(-c3ccncc3)n2)cc1 (centres undefined)
Second: Cc1ccc(C)c(CNC(=O)c2ccc(-c3cccnc3)nc2)c1
The RP-LC retention time of the first is lower: 685 s for the first, 722 s for the second.

First: O=C(COc1cc(O)c2c(=O)c3ccccc3oc2c1)OCc1ccccc1
Second: O=C(NCc1cccc(Br)c1)c1nc(Cn2c(=O)oc3ccccc32)no1
The RP-LC retention time of the first is higher: 1220 s for the first, 895 s for the second.

First: CS(=O)(=O)Nc1cccc(NC(=O)c2ccc(=O)n(Cc3ccccc3)n2)c1
Second: CC1CCN(c2ccc(-c3cccc(NC(=O)NCc4ccccc4)c3)nn2)CC1
The RP-LC retention time of the first is lower: 718 s for the first, 747 s for the second.

Going from `O=C(c1ccoc1)N1CCC(N2CCc3ccccc32)CC1` to `COCC(=O)Nc1ccc2c(c1)CN(C(=O)c1ccccc1)CC2`, the RP-LC retention time falls from 830 s to 658 s.

First: Cc1cc(=O)n(CC(=O)Nc2ccc3c(c2)OCCO3)c(N)n1
Second: Cc1cc(=O)n(CC(=O)Nc2ccc3c(c2)OCCO3)c(N2CCc3ccccc3C2)n1
The RP-LC retention time of the first is lower: 542 s for the first, 732 s for the second.

First: Cn1ncc2c(NCc3ccccc3)nc(NCc3ccccc3)nc21
Second: O=C(CCCc1ccccc1)N1CCCC1c1nc(-c2ccccc2)no1 (centres undefined)
The RP-LC retention time of the first is lower: 652 s for the first, 694 s for the second.

Going from `COCc1noc(C2CN(C(=O)CC(F)(F)F)CC23CCCC3)n1` (centres undefined) to `Cn1c(=O)c(N2CCCC(C(=O)N3CCCCCC3)C2)nc2cccnc21` (centres undefined), the RP-LC retention time rises from 798 s to 918 s.

Going from `CC(C)(C)c1csc(-c2csc(S(=O)(=O)Nc3ccc(Br)cc3F)c2)n1` to `Cc1ccc(NS(=O)(=O)c2cc(-c3cc(C(F)(F)F)on3)sc2C)cc1C`, the RP-LC retention time falls from 1330 s to 1200 s.

First: CCOC(=O)c1c(S(=O)(=O)N2CCC(C(=O)NCc3ccc(OC)cc3)CC2)c(C)n(C)c1C
Second: COc1cccc(Cn2nc3ccc(S(=O)(=O)N4CCC(C)CC4)cn3c2=O)c1
The RP-LC retention time of the first is lower: 793 s for the first, 900 s for the second.

Going from `COc1cccc(S(=O)(=O)N2CCC(c3nc(C(=O)N4CCOCC4)c(C)o3)CC2)c1` to `COc1cccc(S(=O)(=O)N2CCC3(CC2)CC(OC)CCO3)c1` (centres undefined), the RP-LC retention time rises from 794 s to 865 s.

Compared with `O=C(CC1(O)C(=O)Nc2c(Cl)cc(Cl)cc21)c1ccc([N+](=O)[O-])cc1` (centres undefined), `Nc1nc(-c2ccc(Cl)cc2)nn1C(=O)c1ccc(Cl)cc1` is higher in RP-LC retention time: 800 s for the first, 1170 s for the second.

First: Cc1ccccc1Oc1nccnc1N1CCCC(C(=O)NCc2ccc(Br)cc2)C1 (centres undefined)
Second: COc1ccc(OC)c(C(C)NC(=O)C2CCCN(c3nccnc3Oc3ccccc3)C2)c1 (centres undefined)
The RP-LC retention time of the first is lower: 960 s for the first, 998 s for the second.

First: CSc1ccccc1NC(=O)c1cn2c(n1)CCCC2
Second: COc1ccc(N2CCN(C(=O)c3cn4c(n3)CCCC4)CC2)cc1
The RP-LC retention time of the first is higher: 638 s for the first, 574 s for the second.

First: O=C(C(=O)N1CCN(c2ccccc2Cl)CC1)c1c[nH]c2ccccc12
Second: CC1=C(c2ccccc2)S(=O)(=O)N=C1N1CCCN(C(=O)c2ccc(Cl)s2)CC1
The RP-LC retention time of the first is higher: 940 s for the first, 896 s for the second.

Going from `Cc1ccc(-c2nc(N3CC(C)OC(C)C3)c3ccccc3n2)cc1` (centres undefined) to `Cc1ccc(C2CC(=O)c3cnc(Nc4nc(C)c5ccccc5n4)nc3C2)cc1` (centres undefined), the RP-LC retention time rises from 763 s to 772 s.

First: COc1cccc(NC(=O)Cn2nc3nc(N4CCCC(C)C4)ccn3c2=O)c1 (centres undefined)
Second: CNC(=O)C1CCCN(c2nc3ncn(CC(=O)Nc4cccc(C(C)C)c4)c(=O)c3s2)C1 (centres undefined)
The RP-LC retention time of the first is higher: 768 s for the first, 711 s for the second.

Going from `Cn1cccc1C(=O)N1CC[C@@H]2CN(S(C)(=O)=O)[C@@H]2C1` to `CS(=O)(=O)N1CCC(C(=O)NCC2(CO)CC2)CC1`, the RP-LC retention time falls from 624 s to 536 s.

Going from `O=C(C1CCN(c2cnn(Cc3ccccc3)c(=O)c2)CC1)N1CCCCCC1` to `O=C(C1CCN(c2nnc(-c3ccccc3)o2)CC1)N1CCC2(CC1)OCCO2`, the RP-LC retention time falls from 774 s to 701 s.

First: CC1(C)CC(=O)c2cn(-c3ccccc3)c(=O)c(C(=O)Nc3cc(F)ccc3F)c2C1
Second: Cc1cc2c(c(=O)n(-c3ccccc3)c(=O)n2CC(=O)Nc2ccc(C(F)(F)F)cc2)n1C
The RP-LC retention time of the first is higher: 1030 s for the first, 927 s for the second.

First: O=C(CCc1conc1-c1ccc(F)cc1)NC1CCCCC1
Second: O=C(NCCn1nnc2cc(C(=O)N3CCCCC3)ccc21)NC1CCCC1
The RP-LC retention time of the first is higher: 927 s for the first, 661 s for the second.

Going from `CCN1C(=O)NC(c2ccc(C)cc2C)C2=C1CN(CCC(=O)N1CCCC1)C2=O` (centres undefined) to `CCN1C(=O)NC(c2ccc(C)cc2C)C2=C1CN(CCC(=O)N1CCOCC1)C2=O` (centres undefined), the RP-LC retention time falls from 623 s to 614 s.

Compared with `CCCCn1c(SCc2nc(-c3ccc(OCC)cc3)no2)nc2cc3c(cc2c1=O)OCO3`, `Cc1ccc(-c2cc3c(=O)n(Cc4nc(-c5ccccc5)no4)ncn3n2)c(C)c1` is lower in RP-LC retention time: 1390 s for the first, 1200 s for the second.

First: Cn1nnc2ccc(-c3noc(-c4ccc(Cl)cc4)n3)cc21
Second: O=C1CC(c2nc(-c3cccc(Cl)c3)no2)CN1c1ccc2c(c1)OCCO2 (centres undefined)
The RP-LC retention time of the first is higher: 1090 s for the first, 1000 s for the second.

Compared with `O=C(c1ccc2cc[nH]c2c1)N1C[C@@H]2C[C@H]1C[C@@H]2NS(=O)(=O)c1cccs1`, `O=C(NC1CC1)[C@@H]1C[C@H](Oc2ccccc2)CN1C(=O)c1n[nH]c(=O)c2ccccc12` is lower in RP-LC retention time: 754 s for the first, 685 s for the second.

Going from `CSc1ccc(CCNC(=O)Cn2nc(-n3cccc3)c3c(C)cc(C)nc32)cc1` to `CSc1ccc(-c2nc3cnccn3c2Nc2cccc(C(N)=O)c2)cc1`, the RP-LC retention time falls from 1050 s to 684 s.

Going from `CCc1nc2cc(N3CCCC(C(=O)Nc4ccc(OC)cc4OC)C3)cnc2nc1CC` (centres undefined) to `COc1ccc(CNC(=O)C2CCCN(c3nnc4ccc(Cl)cn34)C2)cc1OC` (centres undefined), the RP-LC retention time falls from 934 s to 685 s.

Going from `O=C(NC1CCN(Cc2ccccc2)CC1)C1CC(=O)N(CCc2ccccc2)C1` (centres undefined) to `Cc1cc(N2CCN(C)CC2)nc2ccc(NC(=O)Nc3ccccc3)cc12`, the RP-LC retention time falls from 600 s to 564 s.

First: CC(=O)Nc1ccc(SCc2c(F)cccc2Cl)nn1
Second: COCCNC(=O)c1nc2ccccn2c1-c1ccc(F)cc1
The RP-LC retention time of the first is higher: 787 s for the first, 699 s for the second.

First: Cc1cccc(-c2nc(Cc3noc(CNC(=O)c4ccccc4)n3)c(C)o2)c1
Second: Cc1cccc(NC(=O)Nc2nc(C)c(C(=O)NCc3ccc4c(c3)OCO4)s2)c1
The RP-LC retention time of the first is lower: 924 s for the first, 1020 s for the second.

Compared with `Cc1sc(NC(=O)C(C)C)nc1-c1ccc2c(c1)NC(=O)C(C)O2` (centres undefined), `CC1Oc2ccc(-c3csc(NC(=O)c4ccc(F)cc4)n3)cc2N(C)C1=O` (centres undefined) is higher in RP-LC retention time: 831 s for the first, 1010 s for the second.

First: CCCOc1ccc(Nc2nc(C(=O)OCC)nc3ccccc23)cc1
Second: COc1ccc(-c2nc3cccnc3n2C2CCN(C(=O)NCC(C)C)C2)cc1 (centres undefined)
The RP-LC retention time of the first is higher: 941 s for the first, 680 s for the second.

Compared with `CCc1ccc(C2=C(C)C(N3CCCN(C(=O)c4ccccn4)CC3)=NS2(=O)=O)cc1`, `O=C(Nc1ccc(N2CCCN(C(=O)C3CC3)CC2)cc1)c1ccc(=O)[nH]c1` is lower in RP-LC retention time: 788 s for the first, 595 s for the second.

Going from `Cc1nc(-c2cn(C)c3ncccc23)sc1C(=O)Nc1ccc(F)c(F)c1` to `Cn1cc(-c2nc(C(=O)NCc3ccc(C(F)(F)F)cc3)cs2)c2cccnc21`, the RP-LC retention time rises from 940 s to 1040 s.

First: CN(C)CCCNc1ncnc2c1cnn2-c1cccc(Cl)c1
Second: CCOc1ccccc1NC(=O)c1cn(-c2cc(N3CCC(C)CC3)ncn2)cn1
The RP-LC retention time of the first is lower: 653 s for the first, 1300 s for the second.

Going from `CCCNC(=O)N1CCN(c2nc3c(s2)CN(C(=O)CC)CC3)CC1` to `O=C(COc1ccc(Cl)cc1)N1CCN(c2cc(-c3cccs3)[nH]n2)CC1`, the RP-LC retention time rises from 602 s to 864 s.

Compared with `COC(=O)C(C)Sc1ncnc2c1oc1ccccc12` (centres undefined), `COC(=O)c1cnn2c(C)c(Cc3ccccc3)c(C)nc12` is lower in RP-LC retention time: 906 s for the first, 835 s for the second.

First: COc1ccc(OC)c(CNC(=O)CN2CCN(Cc3ccc(F)cc3)C2=O)c1
Second: CCN1C(=O)CCc2cc(NC(=O)Cc3ccc(F)cc3)ccc21
The RP-LC retention time of the first is higher: 787 s for the first, 780 s for the second.

First: CCSc1ccccc1C(=O)NCCCn1cccc1
Second: COc1cccc(-c2nnc(SCC(=O)NCc3ccco3)n2-c2ccccc2)c1
The RP-LC retention time of the first is higher: 791 s for the first, 739 s for the second.

Compared with `Cc1cc(NC(=O)Cn2ccn3nc(-c4ccc(F)cc4)c(CO)c3c2=O)no1`, `COc1ccc(NC(=O)Cn2c(N3CCOCC3)nc(C)cc2=O)cc1Cl` is higher in RP-LC retention time: 727 s for the first, 1120 s for the second.

First: O=c1n(Cc2cc(F)cc(F)c2)nc2ccc(S(=O)(=O)N3CCOCC3)cn12
Second: CCCOc1ccc(C(=O)Nc2cnn(CC)c(=O)c2N2CCOCC2)cc1
The RP-LC retention time of the first is lower: 816 s for the first, 954 s for the second.

Compared with `CC(=O)OC1CCN(C(=O)NC(C)(C)C)CC1`, `CCOC(=O)C1CCN(C(=O)c2sc(Nc3ccc(F)cn3)nc2C)CC1` is higher in RP-LC retention time: 696 s for the first, 771 s for the second.

For `Cc1ncsc1CN1CC(Oc2ccc(-c3noc(C4CC4)n3)cc2)C1`, the RP-LC retention time was 652 s.
